# According to the supplement of paper PMC10307832:
# Experiments:
# Experiment in all cases: relative viability (nuclei count vs DMSO), 5 days (fraction); higher = more cells survive
# 201T = system: 201T
# In short: (§1)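 Five library-drug doses in √10 steps were combined with a fixed anchor-drug dose, or a single drug was given alone, by pin tool to lung cancer cell lines in 1536-well plates the day after seeding. Nuclei were stained and counted after 5 days. Relative viability is the nuclei count in treated wells over that in vehicle wells, taken as the median of duplicate plates.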
# BEN = system: BEN
# In short: as §1
# CAL-12T = system: CAL-12T
# In short: as §1
# HCC-827 = system: HCC-827
# In short: as §1
# LCLC-103H = system: LCLC-103H
# In short: as §1
# LCLC-97TM1 = system: LCLC-97TM1
# In short: as §1
# LXF-289 = system: LXF-289
# In short: as §1
# NCI-H1395 = system: NCI-H1395
# In short: as §1
# NCI-H1437 = system: NCI-H1437
# In short: as §1
# NCI-H1650 = system: NCI-H1650
# In short: as §1
# NCI-H1792 = system: NCI-H1792
# In short: as §1
structure (smiles),measurement,setting,value
O=c1cc(-c2cccc3c2Sc2ccccc2S3)oc(N2CCOCC2)c1 + Cc1nc(Nc2ncc(C(=O)Nc3c(C)cccc3Cl)s2)cc(N2CCN(CCO)CC2)n1 [Dasatinib] (partner 0.075 µM),relative viability,201T; first compound 0.08 µM,0.637
same,relative viability,201T; first compound 0.253 µM,0.599
same,relative viability,201T; first compound 0.8 µM,0.355
same,relative viability,201T; first compound 2.53 µM,0.521
same,relative viability,201T; first compound 8 µM,0.654
same,relative viability,BEN; first compound 0.08 µM,0.284
same,relative viability,BEN; first compound 0.253 µM,0.353
same,relative viability,BEN; first compound 0.8 µM,0.284
same,relative viability,BEN; first compound 2.53 µM,0.318
same,relative viability,BEN; first compound 8 µM,0.351
same,relative viability,CAL-12T; first compound 0.08 µM,0.339
same,relative viability,CAL-12T; first compound 0.253 µM,0.415
same,relative viability,CAL-12T; first compound 0.8 µM,0.298
same,relative viability,CAL-12T; first compound 2.53 µM,0.34
same,relative viability,CAL-12T; first compound 8 µM,0.27
same,relative viability,HCC-827; first compound 0.08 µM,0.285
same,relative viability,HCC-827; first compound 0.253 µM,0.297
same,relative viability,HCC-827; first compound 0.8 µM,0.37
same,relative viability,HCC-827; first compound 2.53 µM,0.276
same,relative viability,HCC-827; first compound 8 µM,0.348
same,relative viability,LCLC-103H; first compound 0.08 µM,0.416
same,relative viability,LCLC-103H; first compound 0.253 µM,0.503
same,relative viability,LCLC-103H; first compound 0.8 µM,0.528
same,relative viability,LCLC-103H; first compound 2.53 µM,0.439
same,relative viability,LCLC-103H; first compound 8 µM,0.551
same,relative viability,LCLC-97TM1; first compound 0.08 µM,0.899
same,relative viability,LCLC-97TM1; first compound 0.253 µM,0.863
same,relative viability,LCLC-97TM1; first compound 0.8 µM,0.956
same,relative viability,LCLC-97TM1; first compound 2.53 µM,0.749
same,relative viability,LCLC-97TM1; first compound 8 µM,0.757
same,relative viability,LXF-289; first compound 0.08 µM,0.219
same,relative viability,LXF-289; first compound 0.253 µM,0.21
same,relative viability,LXF-289; first compound 0.8 µM,0.226
same,relative viability,LXF-289; first compound 2.53 µM,0.239
same,relative viability,LXF-289; first compound 8 µM,0.224
same,relative viability,NCI-H1395; first compound 0.08 µM,0.425
same,relative viability,NCI-H1395; first compound 0.253 µM,0.366
same,relative viability,NCI-H1395; first compound 0.8 µM,0.436
same,relative viability,NCI-H1395; first compound 2.53 µM,0.338
same,relative viability,NCI-H1395; first compound 8 µM,0.386
same,relative viability,NCI-H1437; first compound 0.08 µM,0.435
same,relative viability,NCI-H1437; first compound 0.253 µM,0.488
same,relative viability,NCI-H1437; first compound 0.8 µM,0.401
same,relative viability,NCI-H1437; first compound 2.53 µM,0.339
same,relative viability,NCI-H1437; first compound 8 µM,0.423
same,relative viability,NCI-H1650; first compound 0.08 µM,0.327
same,relative viability,NCI-H1650; first compound 0.253 µM,0.339
same,relative viability,NCI-H1650; first compound 0.8 µM,0.259
same,relative viability,NCI-H1650; first compound 2.53 µM,0.241
same,relative viability,NCI-H1650; first compound 8 µM,0.267
same,relative viability,NCI-H1792; first compound 0.08 µM,0.791
same,relative viability,NCI-H1792; first compound 0.253 µM,1.01
same,relative viability,NCI-H1792; first compound 0.8 µM,0.617
same,relative viability,NCI-H1792; first compound 2.53 µM,0.728
same,relative viability,NCI-H1792; first compound 8 µM,1.04
